The values that follow come from US20230330064A1, “TYROSINE, TRYPTOPHAN AND PHENYLALANINE AS mTOR AGONISTS MEDIATING PROTEASOME DYNAMICS, COMPOSITIONS, METHODS AND USES THEREOF IN THERAPY, AND PROGNOSTIC METHODS FOR DRUG-RESISTANCE” (Technion Research & Development Foundation Limited, priority 2020, published 2023).

Experiment [1] relates to MCF-7. As to conditions: cited from earlier work.
Experiment [2] has as its system 26S proteasome. Nature of the experiment: Proteasome subcellular localization in cultured cells (immunofluorescence, western blot of nuclear fractions). Format: cell-based. As to conditions: substance added to amino acid starvation medium, 8 h. How it is done: Cells were seeded on glass cover slips for 36 h. Following the indicated treatments, they were fixed with 4% PFA for 15 min, washed with (phosphate-buffered saline) PBS and incubated in PBS containing 10% goat serum for 1h at room temperature, followed by 2 h incubation with the indicated primary antibody. Following extensive wash with PBS, the fixed cells were incubated with the relevant secondary antibody for 1 h, washed and mounted. Images were acquired using Zeiss LSM 700 confocal microscope (Zeiss, Oberkochen, Germany).
The proteasome subunits α6, β1, and PSMD1 were visualized via indirect immunofluorescence, using primary and secondary antibodies listed under Key Resources Table. To observe the proteasome in live cells, we expressed the cDNAs of the β4, Rpn2, Rpn6, and Rpn13 proteasome subunits C-terminally fused with GFP. Photoconversion of proteasome-fused Dendra2 was carried out as previously described (McKinney et al., 2009 Nat Methods. 131-133).
Cells were incubated for 20 min in fractionation buffer [20 mM HEPES pH 7.3, 10 mM KCl, 5 mM ATP, 5 mM MgCl2, and protease inhibitor cocktail (Roche)], followed by the addition of NP-40 (to 0.1%). They were then mixed thoroughly and centrifuged at 1,000×g for 5 min. The supernatant was collected as cytosolic fraction, and the pellet (nuclei) was washed twice with PBS. To dissolve the nuclear pellet, fractionation buffer supplemented with 0.5% sodium deoxycholate was added followed by sonication.
Cells were washed twice with ice cold PBS and scraped into lysis buffer (50 mM Tris-HCl, pH 7.4, 130 mM NaCl, 0.5% NP-40) supplemented with freshly added protease inhibitor cocktail, 5 mM ATP, 10 mM iodoacetamide, and 5 mM N-ethyl maleimide. Protein concentration was measured by the BCA assay according to the manufacturer's instructions (Pierce, Rockford, IL). 30 μg of cellular protein were resolved via SDS-PAGE, transferred to a nitrocellulose membrane and immunoblotted with the appropriate antibody.
(In general: In western blotting, separated proteins are transferred to a membrane and probed.)

Experiment [3] has as its system tumors. Nature of the experiment: Tumor model in mice, YWF versus various concentrations of F. As to conditions: various concentrations up to 45 mM. It counts as in vivo. The procedure:
The anti-tumorigenic effect of the indicated treatments was examined in vivo, using a tumor model in mice.
The inventors next aimed to assess the anti-tumorigenic effect of the above treatments in vivo, using a tumor model in mice. Following tumor formation, each group was treated with a different treatment, and the size of tumors was eventually compared relative to the control group (QLR).

For experiment [4], the system named is cancer cells. Nature of the experiment: Cell viability of stressed (starved) and non-stressed cancer cells, YWF versus 45 mM F or W.
Experimental: Since tumor cells are inherently stressed—due to high metabolic demands and poor perfusion of nutrients and oxygen, starved cells in culture were used in order to simulate the effect of the different treatments. Similarly, to simulation of the effect of each treatment on “normal” tissues in vivo—which are not stressed—the same amino acid(s) were added to non-starved cells in culture.

With `N[C@@H](Cc1c[nH]c2cccc(F)c12)C(=O)O` [L-(4-F) Trp], in experiment [1], the “growth of MCF-7 cells” value is “completely inhibited the growth”.
Turning to `N[C@@H](Cc1ccccc1)C(=O)O` [Phe, Phenylalanine], the “starvation-induced proteasome translocation from the nucleus to the cytosol” value in experiment [2] was “significant effect”. Also, the “benefit on tumor growth relative to control group (QLR)” value in experiment [3] is “did not result in any benefit”. For the same compound, the “elimination of stressed cancerous cells in culture” value in experiment [4] is “clearly inferior to the mixture of YWF”.
